# Target: T1, OATP1B1 (Homo sapiens, UniProt Q9Y6L6)
# T1 construct: expressed in transfected cells; host or cells: HEK293
# T1 sequence (Q9Y6L6 1-691): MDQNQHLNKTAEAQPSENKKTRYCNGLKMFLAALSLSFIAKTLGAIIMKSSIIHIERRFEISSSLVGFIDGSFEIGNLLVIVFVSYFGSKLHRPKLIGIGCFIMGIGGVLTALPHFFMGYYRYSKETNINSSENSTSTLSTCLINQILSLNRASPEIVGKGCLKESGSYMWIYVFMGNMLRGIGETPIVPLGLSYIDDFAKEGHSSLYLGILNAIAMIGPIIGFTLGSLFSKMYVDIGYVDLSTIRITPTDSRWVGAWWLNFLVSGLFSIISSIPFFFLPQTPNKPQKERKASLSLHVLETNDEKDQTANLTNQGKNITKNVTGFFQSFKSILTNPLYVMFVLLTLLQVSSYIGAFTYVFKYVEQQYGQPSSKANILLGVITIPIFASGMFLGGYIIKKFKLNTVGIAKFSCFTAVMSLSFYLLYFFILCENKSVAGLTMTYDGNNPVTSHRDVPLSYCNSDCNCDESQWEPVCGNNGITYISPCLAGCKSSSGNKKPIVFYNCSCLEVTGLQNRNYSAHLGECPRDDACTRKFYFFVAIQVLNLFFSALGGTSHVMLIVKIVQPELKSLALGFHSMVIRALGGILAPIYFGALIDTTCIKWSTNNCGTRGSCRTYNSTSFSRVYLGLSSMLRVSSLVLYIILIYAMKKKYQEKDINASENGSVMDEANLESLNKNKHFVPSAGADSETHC
# Assay: Washout assay: recovery of OATP1B1 function (EβG uptake)
# Assay type: cell-based
# Conditions: within a 1-h period after 15 min treatment with gilteritinib 15 µM; 0.2 μM EβG
# Protocol: OATP1B1 overexpressing cells and vector control cells were plated in 12-well plates 24 h prior to experimentation. Cells were then washed with warm PBS and pre-incubated for 15 min with 0.5 mL DMSO or gilteritinib (15 μM) in DMEM at 37 °C. After pre-incubation, the supernatant was removed, and cells were washed with PBS. Compound-free medium was then added, and the cells were further incubated for periods of 15, 30, and 60 min. Next, the medium was removed, and cells were incubated with 0.5 mL of 0.2 μM EβG for 15 min. After that, the medium was removed and the cells were washed three times with ice-cold PBS, and 1 N NaOH was added to the wells to stop the rection. The next day 1 M HCL was added to each well and substrate concentrations were assessed using liquid scintillation counting. The resulting data were normalized to total protein as determined by a Pierce protein assay.
smiles,measurement,value
CCc1nc(C(N)=O)c(Nc2ccc(N3CCC(N4CCN(C)CC4)CC3)c(OC)c2)nc1NC1CCOCC1 [Gilteritinib],OATP1B1 transport recovered after washout,75%
